# Experiments:
# [1] = molecular target: T1, sEH (Homo sapiens, UniProt P34913); assay: sEH inhibition, assay not specified; assay type: biochemical
# T1 sequence (P34913 1-555): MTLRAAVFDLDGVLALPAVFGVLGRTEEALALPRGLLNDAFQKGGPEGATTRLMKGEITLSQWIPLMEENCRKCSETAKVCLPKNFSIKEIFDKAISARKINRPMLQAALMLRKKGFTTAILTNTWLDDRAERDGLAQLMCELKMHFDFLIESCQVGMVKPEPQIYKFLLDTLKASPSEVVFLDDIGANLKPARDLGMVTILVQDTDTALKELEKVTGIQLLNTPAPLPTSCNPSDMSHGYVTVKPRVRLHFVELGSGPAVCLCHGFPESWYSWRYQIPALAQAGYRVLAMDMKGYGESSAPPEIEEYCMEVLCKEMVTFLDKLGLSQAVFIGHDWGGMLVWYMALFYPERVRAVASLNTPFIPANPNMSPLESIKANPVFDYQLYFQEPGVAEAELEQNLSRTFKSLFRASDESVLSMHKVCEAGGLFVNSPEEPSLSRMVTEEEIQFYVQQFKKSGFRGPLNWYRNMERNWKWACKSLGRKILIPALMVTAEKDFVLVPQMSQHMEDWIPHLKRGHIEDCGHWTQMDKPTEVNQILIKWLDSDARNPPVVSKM
# Excerpt: (§1) (Both the 1- and the 2-adamantyl ureas have been tested and have about the same high activity as an inhibitor of sEH.) Thus, isomers of adamantyl dodecyl urea are preferred inhibitors. It is further expected that N,N′-dodecyl-cyclohexyl urea (DCU), and other inhibitors of sEH, and particularly dodecanoic acid ester derivatives of urea, are suitable for use in the methods of the invention.
# [2] = Metabolic stability, method not given; assay type: in vitro ADME
# Excerpt: as §1
# [3] = system: C57BL/6 mice; assay: Niacin-induced flushing: laser Doppler ear blood flow in anesthetized mice; assay type: in vivo, mouse; conditions: for peak ear tissue perfusion after niacin (composite, FIG. 9): i.p. 30 minutes before niacin 30 mg/kg, TPAU 0.01-1 mg/kg, others 4 mg/kg
# Protocol: For the experiments, mice were anesthetized using Nembutal (50 mg/kg) given by intraperitoneal (I.P.) injection. […]
# Laser Doppler ear blood flow: The change in ear flow was measured using a laser doppler flowmeter (BLF 21, on loan from Transonic Systems, Inc., Ithaca, N.Y.). […] The laser doppler probe was fitted with a sleeve of 2 mm length plastic tubing and attached to a micromanipulator to standardize the depth of the tissue being measured. Blood flow was measured at 30 second intervals before and during exposure to compounds. Baseline blood flow was established by the average of measurements over 5 min prior to injection of drug or vehicle. Data were analyzed as a fraction of baseline.
# Mice were anesthetized with Nembutal™ (50 mg/kg) and ear cutaneous perfusion was measured as explained above. Animals were then injected with a niacin solution (30 mg/kg, in physiological saline) and response (% tissue perfusion) after 3 minutes measured.
# [4] = system: C57BL/6 mice; assay: PGD2-induced vasodilation/flushing, ear perfusion in mice; assay type: in vivo, mouse
# Protocol: Mouse Model: C57BL/6 mice were obtained from Charles River Laboratories (location). sEHi knockout mice were generated at UC Davis using the C57BL/6 background [EnayetAllah, et al., J Biol. Chem. (2008) 283(52):36592-8]. For the experiments, mice were anesthetized using Nembutal (50 mg/kg) given by intraperitoneal (I.P.) injection. […]
# Laser Doppler ear blood flow: The change in ear flow was measured using a laser doppler flowmeter (BLF 21, on loan from Transonic Systems, Inc., Ithaca, N.Y.). As described by Cheng et al [Proc Natl Acad Sci (2006) 103(17):6682-7] the flow probe was placed against the ventral aspect of the right ear of the anesthetized mouse. The laser doppler probe was fitted with a sleeve of 2 mm length plastic tubing and attached to a micromanipulator to standardize the depth of the tissue being measured. Blood flow was measured at 30 second intervals before and during exposure to compounds. Baseline blood flow was established by the average of measurements over 5 min prior to injection of drug or vehicle. Data were analyzed as a fraction of baseline.
# [5] = system: C57BL/6 mice; assay: Eicosanoid analysis by LC-MS/MS in plasma/serum of mice given niacin +/- sEHi; assay type: in vivo, mouse
# [6] = system: C57BL/6 mice; assay: Eicosanoid analysis by LC-MS in ear tissue of mice given niacin +/- sEHi; assay type: in vivo, mouse; conditions: for products of the 5-lipoxygenase pathway in ear tissue: niacin 30 mg/kg subcutaneously, TPAU 3 mg/kg pre-treatment, FIG. 10
# Protocol: Samples were spiked with a suite of odd chain length analogs (surrogates) then solvent extracted and partially purified by passing through a solid phase (SP) extraction column using Oasis HLB cartridges. The loaded column was washed with 2 mL 2.5 mM H2PO4+10% methanol and dried under vacuum. Target analytes were eluted with 2 mL of ethyl acetate. The collected extracts were evaporated to dryness under nitrogen, re-dissolved in a final volume of 100 μL with methanol containing deuterated isomers of internal standards including prostaglandins, thromboxanes, epoxides, diols, of arachidonic acid, which allows accurate surrogate recovery calculations and stored at −20° C. until analysis. A 10-20 μL aliquot of each sample was separated by reversed phase HPLC chromatography on a 150 mm×2 mm I.D. 5 μm particle size C18 column using a gradient of water-0.1% acetic acid and 89:11 acetonitrile/methanol (v/v)-0.1% acetic acid. […] The system was calibrated with a minimum of five calibration solutions containing analytical targets at concentrations ranging from 1 to 1000 nM. The analysis of each sample was repeated three times. Calibration check solutions were analyzed at a minimum frequency of 10 hours to ensure stability of the analytical calibration throughout a given analysis.
# As the flushing effect of niacin is essentially local rather than systemic, the effect of niacin +/−sEHi on ear tissue prostaglandins were also examined by LC-MS.
# Products of the 5-lipoxygenase pathway are generally considered pro-inflammatory.
# [7] = system: COX-2 / COX-1; conditions: cited from earlier work
# [8] = 325 mg of aspirin, Dunn et al 1995; cited from earlier work
# [9] = molecular target: T2, recombinant murine sEH (Mus musculus, UniProt P34914); assay: Inhibition of recombinant murine sEH; assay type: biochemical
# T2 sequence (P34914 1-554): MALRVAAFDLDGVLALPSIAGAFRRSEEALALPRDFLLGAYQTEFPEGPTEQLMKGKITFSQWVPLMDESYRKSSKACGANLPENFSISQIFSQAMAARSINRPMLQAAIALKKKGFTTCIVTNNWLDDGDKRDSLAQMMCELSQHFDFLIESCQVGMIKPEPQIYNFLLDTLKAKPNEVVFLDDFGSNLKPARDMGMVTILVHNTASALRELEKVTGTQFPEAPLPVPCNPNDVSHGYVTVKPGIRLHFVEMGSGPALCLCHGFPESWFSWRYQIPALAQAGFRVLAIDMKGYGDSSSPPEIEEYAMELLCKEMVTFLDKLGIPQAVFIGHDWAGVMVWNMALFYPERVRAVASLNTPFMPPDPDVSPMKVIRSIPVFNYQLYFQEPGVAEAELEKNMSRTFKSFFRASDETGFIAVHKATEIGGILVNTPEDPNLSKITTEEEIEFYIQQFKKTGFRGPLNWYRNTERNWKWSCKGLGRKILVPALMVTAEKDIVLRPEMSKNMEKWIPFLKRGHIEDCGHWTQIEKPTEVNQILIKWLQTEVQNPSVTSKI
# [10] = molecular target: T1, sEH; assay: Inhibition of recombinant human sEH; assay type: biochemical
# [11] = system: mouse ear; assay: Capsaicin applied to the mouse ear: tissue perfusion; assay type: in vivo
# Excerpt: Tachyphylaxis to the flushing effect of niacin is well known, although the mechanism has not been elucidated. […] Tachyphylaxis to the vasodilatory effect of capsaicin is likely mediated by repetitive activation of transient receptor potential channels, in particular TRPV1, with resultant desensitization and internalization. See, Fan et al., J Biol Chem (2009) 284:27884-91; Myers, et al., Neuron (2007) 54:847-50. […] Subsequently, mice were exposed to capsaicin daily for 3 days (treated topically, 4 times per day), resulting in abolition of the acute vasodilatory response (i.e. tachyphylaxis to capsaicin). […] Although the exact sequence of events following niacin exposure is not clear it seems that niacin activates a number of targets simultaneously.
# [12] = niacin 30 mg/kg, wild type mice, FIG. 6
structure (smiles),measurement,setting,value
"CCCCCCCCCCCCNC(=O)NC12CC3CC(CC(C3)C1)C2 [ADU, N-Adamantyl-N′-dodecyl urea]",activity on sEH,[1],particularly high activity on sEH
same,metabolic stability,[2],metabolically stable
CC(C)(C)c1ccc(/C=C/C(=O)Nc2ccc3c(c2)OCCO3)cc1 [AMG9810],flushing response to niacin,"[3]; AMG9810 10 mg/kg IP, in the animal tested",abolished the flushing response to niacin
same,flushing response to PGD2,"[4]; AMG9810 10 mg/kg IP, FIG. 12",blunted the biologic response to PGD2
"O=C(NC1CCN(C(=O)C(F)(F)F)CC1)NC12CC3CC(CC(C3)C1)C2 [TPAU, N-(1-(2,2,2-trifluoroethanoyl)piperidin-4-yl)-N′-(adamant-1-yl)urea]",peak perfusion after niacin,"[3]; TPAU 0.05 mg/kg to 1 mg/kg, FIG. 8",significant reduction in peak perfusion
same,flushing (% tissue perfusion 3 minutes after niacin),"[3]; TPAU 0.01 to 1 mg/kg, 1 hour prior to niacin 30 mg/kg, n=4-6",dose-dependently reduced flushing
same,"peak ear tissue perfusion after niacin (composite, FIG. 9)",[3],significantly reduced peak ear tissue perfusion
same,dose giving total inhibition of flushing,"[3]; mice, niacin 30 mg/kg",0.3 mg/kg
same,Ki50 for inhibition of niacin-induced flushing,"[3]; mice, niacin 30 mg/kg, TPAU pre-treatment",approximately 0.01 mg/kg
same,PGD2-induced increase in perfusion,"[4]; TPAU pretreatment at a concentration sufficient to inhibit niacin-induced perfusion increase, FIG. 4",did not limit the increase in perfusion with administration of PGD2
same,PGD2 levels with niacin + sEHi,"[5]; TPAU 3 mg/kg, FIG. 5",did not result in the expected reduction in PGD2
same,niacin-induced reduction of plasma EETs and ratio EETs/DHETs,"[5]; sEHi TPAU 3 mg/kg, niacin 30 mg/kg, FIG. 1-3",counters this reduction in EETs
same,products of the 5-lipoxygenase pathway in ear tissue,[6],limited or abrogated niacin-induced increases in products of the 5-lipoxygenase pathway
CC(=O)Oc1ccccc1C(=O)O [aspirin],"peak ear tissue perfusion after niacin (composite, FIG. 9)",[3],significantly reduced peak ear tissue perfusion
same,COX-2 (IC50)/COX-1 (IC50) ratio,[7],0.32
same,effectiveness against niacin flushing,[8],more effective than 165 mg of aspirin or 200 mg ibuprofen
COc1cc(CNC(=O)CCCC/C=C/C(C)C)ccc1O [capsaicin],vasodilatory response to niacin after capsaicin tachyphylaxis,"[3]; capsaicin topically 4 times per day for 3 days, FIG. 11",blunted vasodilatory response
same,flushing response to niacin after capsaicin tachyphylaxis plus acute topical capsaicin,[3]; repeated capsaicin then acute topical capsaicin prior to niacin injection,abolished
same,IC50,[9],1.5 µM
same,IC50,[10],1.5 µM
same,ear tissue perfusion after topical capsaicin,[11],time-dependent increase in tissue perfusion
COc1ccc2c(c1)c(CC(=O)O)c(C)n2C(=O)c1ccc(Cl)cc1 [indomethacin],COX-2 (IC50)/COX-1 (IC50) ratio,[7],33
"O=C(O)c1cccnc1 [niacin, pyridine-3-carboxylic acid]",increase in ear perfusion,[3]; [12],~400%
same,time of peak ear perfusion after injection,[3]; [12],approximately 4 minutes
same,plasma levels of EETs (total EETs or ratio EETs/DHETs),[5]; niacin 30 mg/kg subcutaneous alone,reduced plasma levels of EETs
same,PGE2 levels in serum,[5]; niacin alone,without altering PGE2 levels
same,increase of PGD2 levels in serum,[5]; niacin alone,approximately 100%
same,ear tissue PGD2 level,"[6]; LC-MS, unit not given",33214
same,products of the 5-lipoxygenase pathway in ear tissue,[6],increased products of the 5-lipoxygenase pathway
same,increase of ear tissue PGD2,"[6]; niacin vs control, P=0.09",21%
CNC(=O)c1cc(Oc2ccc(NC(=O)Nc3ccc(Cl)c(C(F)(F)F)c3)cc2)ccn1 [sorafenib],"peak ear tissue perfusion after niacin (composite, FIG. 9)",[3],significantly reduced peak ear tissue perfusion

# — patent publication US20120046251A1, “INHIBITORS OF SOLUBLE EPOXIDE HYDROLASE TO INHIBIT OR PREVENT NIACIN-INDUCED FLUSHING” (The Regents of the University of California, priority 2009, published 2012)
